From article PMC3127118, “Characterization of a Deswapped Triple Mutant Bovine Odorant Binding Protein” (2011) come the findings set out here.

The experiment addresses T1, GCC-bOBP (monomeric triple mutant of bovine odorant binding protein) (Bos taurus, UniProt P07435, W64C/INS121G/H155C).
T1 construct: GCC-bOBP, deswapped monomeric triple mutant
T1 sequence (P07435 with tags, fused parts or gaps W64C/INS121G/H155C): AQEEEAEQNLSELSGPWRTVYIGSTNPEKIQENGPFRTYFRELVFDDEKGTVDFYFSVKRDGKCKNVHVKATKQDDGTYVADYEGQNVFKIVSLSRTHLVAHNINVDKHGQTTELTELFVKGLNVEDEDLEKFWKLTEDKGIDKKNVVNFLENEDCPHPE
Kind of experiment: fluorescence titration (direct AMA fluorescence, excitation […] nm; FRET from Trp, excitation […] nm, gave Kd […]), pH […] °C.

`Nc1cccc2cc3ccccc3cc12` [AMA, 1-aminoanthracene] gave a Kd of 5 ± 0.2 µM.

The term Kd denotes a measure of binding affinity in units of concentration. Higher therefore signals weaker binding.
